Experimental data from PMC4710522, “A Novel Triazolopyridine-Based Spleen Tyrosine Kinase Inhibitor That Arrests Joint Inflammation” (PLoS ONE, 2016).

Assays:
ZIPK_h = target: T1, ZIPK_h (Homo sapiens, UniProt O43293); test: SelectScreen kinase assay; assay type: biochemical; conditions: KM ATP, read-out: % control
T1 construct: purchased Life Technologies (Invitrogen) SelectScreen, Z'-LYTE / Adapta

Adenosine A2a = target: T2, Adenosine A2a (Homo sapiens, UniProt P29274); test: receptor, ion channel, transporter binding panel (CEREP)
T2 construct: CEREP (contract assay)
T2 sequence (P29274 whole entry): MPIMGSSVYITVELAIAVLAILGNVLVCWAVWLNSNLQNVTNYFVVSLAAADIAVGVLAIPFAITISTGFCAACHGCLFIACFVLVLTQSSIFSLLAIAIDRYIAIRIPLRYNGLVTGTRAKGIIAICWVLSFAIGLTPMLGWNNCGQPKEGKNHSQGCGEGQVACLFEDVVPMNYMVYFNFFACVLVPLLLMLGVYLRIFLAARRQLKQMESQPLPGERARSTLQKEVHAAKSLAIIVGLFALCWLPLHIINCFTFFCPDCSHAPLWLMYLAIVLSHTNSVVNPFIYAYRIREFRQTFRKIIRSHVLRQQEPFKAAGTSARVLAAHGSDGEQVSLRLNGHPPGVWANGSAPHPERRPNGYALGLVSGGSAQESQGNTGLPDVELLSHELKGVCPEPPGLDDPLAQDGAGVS
Protocol: (§1) Syk kinase mode of inhibition studies, including parameters described in Fig 1, were conducted on the LC3000 platform by Caliper Life Sciences (Hopkinton, MA) according to standard protocols developed by the supplier. […] Non-kinase enzyme assays and GPCR, ion channel, and transporter binding assays were run by CEREP (France). Non-GLP manual patch clamp hERG assays were run by ChanTest (Cleveland, Ohio). Vivid® Assay kits (Life Technologies) were used to measure the cytochrome P450 inhibition of the compound against CYP3A, CYP2C9, CYP2C19, CYP2D6, and CYP1A2, as described.

Adenosine A3 = target: T3, Adenosine A3 (Homo sapiens, UniProt P0DMS8); test: as above
T3 construct: CEREP (contract assay)
T3 sequence (P0DMS8 whole entry): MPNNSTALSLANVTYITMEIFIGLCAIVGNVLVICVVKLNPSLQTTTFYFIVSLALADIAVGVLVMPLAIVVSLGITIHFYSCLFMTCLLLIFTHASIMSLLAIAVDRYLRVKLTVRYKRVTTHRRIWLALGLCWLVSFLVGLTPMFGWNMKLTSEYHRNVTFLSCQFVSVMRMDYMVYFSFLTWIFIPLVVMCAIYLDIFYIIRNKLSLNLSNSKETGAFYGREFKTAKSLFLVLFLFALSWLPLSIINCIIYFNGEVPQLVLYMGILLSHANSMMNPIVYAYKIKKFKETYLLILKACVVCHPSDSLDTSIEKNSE
Protocol: as §1

Adenosine A1 = target: T4, Adenosine A1 (Homo sapiens, UniProt P30542); test: as above
T4 construct: CEREP (contract assay)
T4 sequence (P30542 whole entry): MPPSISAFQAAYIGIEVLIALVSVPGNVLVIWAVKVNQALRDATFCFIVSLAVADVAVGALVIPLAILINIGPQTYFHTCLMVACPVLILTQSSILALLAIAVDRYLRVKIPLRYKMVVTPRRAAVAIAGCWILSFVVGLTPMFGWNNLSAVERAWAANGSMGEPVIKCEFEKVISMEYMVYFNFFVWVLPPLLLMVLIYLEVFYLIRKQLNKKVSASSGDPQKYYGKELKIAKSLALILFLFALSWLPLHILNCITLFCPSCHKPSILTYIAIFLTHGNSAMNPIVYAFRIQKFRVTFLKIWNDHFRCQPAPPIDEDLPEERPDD
Protocol: as §1

FGFR4_h = target: T5, FGFR4_h (Homo sapiens, UniProt P22455); test: SelectScreen kinase assay; assay type: biochemical; conditions: KM ATP, read-out: % control
T5 construct: purchased Life Technologies (Invitrogen) SelectScreen, Z'-LYTE / Adapta
T5 sequence (P22455 22-802): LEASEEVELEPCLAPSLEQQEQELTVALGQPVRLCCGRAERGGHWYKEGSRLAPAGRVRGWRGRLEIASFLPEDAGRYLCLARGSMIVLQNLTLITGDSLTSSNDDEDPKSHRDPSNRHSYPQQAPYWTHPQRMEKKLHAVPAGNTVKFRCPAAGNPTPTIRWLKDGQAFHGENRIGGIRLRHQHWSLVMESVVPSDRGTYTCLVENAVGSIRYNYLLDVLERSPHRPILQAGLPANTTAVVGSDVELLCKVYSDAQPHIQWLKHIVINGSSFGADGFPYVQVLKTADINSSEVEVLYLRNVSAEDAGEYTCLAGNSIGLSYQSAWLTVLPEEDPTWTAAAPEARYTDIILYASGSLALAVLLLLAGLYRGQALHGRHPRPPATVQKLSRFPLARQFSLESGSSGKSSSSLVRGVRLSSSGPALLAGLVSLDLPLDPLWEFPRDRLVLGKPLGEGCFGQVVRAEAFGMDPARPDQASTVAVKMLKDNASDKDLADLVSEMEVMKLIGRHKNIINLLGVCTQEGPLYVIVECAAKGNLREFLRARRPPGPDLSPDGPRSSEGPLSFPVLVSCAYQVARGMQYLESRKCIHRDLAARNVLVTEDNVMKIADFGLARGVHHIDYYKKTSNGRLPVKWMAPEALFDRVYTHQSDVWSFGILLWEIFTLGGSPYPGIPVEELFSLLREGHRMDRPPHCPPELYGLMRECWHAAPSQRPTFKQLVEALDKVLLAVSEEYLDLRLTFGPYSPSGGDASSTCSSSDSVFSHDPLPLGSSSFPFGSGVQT

Rsk1_h = target: T6, Rsk1_h (Homo sapiens, UniProt Q15418); test: SelectScreen kinase assay; assay type: biochemical; conditions: KM ATP, read-out: % control
T6 construct: purchased Life Technologies (Invitrogen) SelectScreen, Z'-LYTE / Adapta
T6 sequence (Q15418 whole entry): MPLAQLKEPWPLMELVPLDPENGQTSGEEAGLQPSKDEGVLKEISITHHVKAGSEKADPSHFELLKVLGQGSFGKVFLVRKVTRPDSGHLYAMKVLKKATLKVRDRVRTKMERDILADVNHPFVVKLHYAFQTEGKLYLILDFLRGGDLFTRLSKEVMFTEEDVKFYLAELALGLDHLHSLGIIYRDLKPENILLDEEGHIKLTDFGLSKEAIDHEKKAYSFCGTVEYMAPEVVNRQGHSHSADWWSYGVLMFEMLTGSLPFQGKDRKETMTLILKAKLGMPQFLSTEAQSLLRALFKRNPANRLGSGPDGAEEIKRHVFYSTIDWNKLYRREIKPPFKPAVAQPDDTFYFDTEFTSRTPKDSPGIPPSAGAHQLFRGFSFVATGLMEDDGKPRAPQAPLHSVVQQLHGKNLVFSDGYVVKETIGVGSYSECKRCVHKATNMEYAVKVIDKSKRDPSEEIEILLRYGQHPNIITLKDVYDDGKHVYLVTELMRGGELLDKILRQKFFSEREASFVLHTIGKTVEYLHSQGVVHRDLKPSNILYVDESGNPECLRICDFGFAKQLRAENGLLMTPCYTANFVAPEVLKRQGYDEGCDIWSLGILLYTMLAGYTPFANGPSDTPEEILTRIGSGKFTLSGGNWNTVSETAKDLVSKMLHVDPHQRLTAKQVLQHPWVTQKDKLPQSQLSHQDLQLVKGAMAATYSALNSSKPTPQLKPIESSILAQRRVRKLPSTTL

RetA = target: T7, RetA (Homo sapiens, UniProt P07949); test: Ret A HTRF assay; assay type: biochemical; conditions: in-house, mean ± SD
T7 construct: purchased Life Technologies PV3819
T7 sequence (P07949 29-1114): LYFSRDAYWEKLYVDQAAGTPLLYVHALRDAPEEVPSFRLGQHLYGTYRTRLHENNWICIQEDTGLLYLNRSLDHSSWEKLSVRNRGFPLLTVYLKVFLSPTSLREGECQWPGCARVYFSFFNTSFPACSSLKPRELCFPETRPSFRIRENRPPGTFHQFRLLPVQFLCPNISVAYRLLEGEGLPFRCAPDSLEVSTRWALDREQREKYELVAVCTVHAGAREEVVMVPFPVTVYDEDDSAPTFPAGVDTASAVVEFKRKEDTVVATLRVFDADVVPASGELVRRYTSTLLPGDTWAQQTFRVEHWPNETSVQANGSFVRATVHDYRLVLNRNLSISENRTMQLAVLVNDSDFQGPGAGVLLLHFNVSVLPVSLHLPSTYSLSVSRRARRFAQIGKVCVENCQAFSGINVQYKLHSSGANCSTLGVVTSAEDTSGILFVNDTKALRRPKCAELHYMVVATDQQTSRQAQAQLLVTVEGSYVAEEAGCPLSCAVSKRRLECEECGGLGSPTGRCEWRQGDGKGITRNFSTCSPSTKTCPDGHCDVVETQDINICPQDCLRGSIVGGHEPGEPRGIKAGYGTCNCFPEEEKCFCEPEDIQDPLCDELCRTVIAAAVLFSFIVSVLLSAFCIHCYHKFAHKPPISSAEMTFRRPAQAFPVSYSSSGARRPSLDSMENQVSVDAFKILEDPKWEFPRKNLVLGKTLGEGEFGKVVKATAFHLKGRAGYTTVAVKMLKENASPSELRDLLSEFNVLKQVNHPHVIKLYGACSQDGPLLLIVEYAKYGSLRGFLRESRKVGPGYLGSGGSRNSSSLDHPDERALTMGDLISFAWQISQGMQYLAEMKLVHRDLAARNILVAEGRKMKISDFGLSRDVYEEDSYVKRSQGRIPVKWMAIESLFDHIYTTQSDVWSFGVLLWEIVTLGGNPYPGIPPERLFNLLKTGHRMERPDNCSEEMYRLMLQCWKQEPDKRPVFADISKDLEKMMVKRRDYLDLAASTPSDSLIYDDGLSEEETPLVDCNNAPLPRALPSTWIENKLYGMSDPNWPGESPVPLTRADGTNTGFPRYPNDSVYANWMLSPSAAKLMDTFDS
Protocol: CC-509 was prepared at a concentration of 1.5 mM in DMSO followed by 3-fold dilutions in Greiner […] polypropylene plates. A 1:4 dilution of compounds by 8 μL/well transfer from the polypropylene plates to 24 μL/well Assay Buffer (50 mM HEPES pH 7.6, 1 mM DTT, 10 mM MgCl2, 0.01% Triton X-100, 0.01% BSA and 0.1 mM EDTA) in Costar 3710 384 well black plates was then performed. Kinases (13 μL/well of 31 ng/ml RetA (Life Technologies, Grand Island, NY PV3819) in Assay Buffer) or Assay Buffer only (background controls) were added to Costar 3710 384-well black plates for the HTRF assays and compound (2 μL/ well) was added from the 1:4 dilution plate. […] Time resolved fluorescence was read in assay plates on a PerkinElmer EnVision. […] The IC50 value was determined as described in the data fitting section below.
For the TEL-Syk assay, the intensity values for the 700 and 800 channel were exported as text files in ActivityBase (IDBS, Guildford, UK) to derive the ratios that reflect kinase activity. […] For the JAK2 HEL and Ramos NFAT β-lactamase assays, the fluorescence values obtained at 460 nm and 530 nm were exported into ActivityBase to calculate response ratios. […] Evans blue dye extravasation was expressed as mean ± SEM and % inhibition for the test article groups was normalized to the cromolyn positive control. […] Data is expressed as mean ± SEM of each group with n = 6–12. […]

MEK2_h = target: T8, MEK2_h (Homo sapiens, UniProt P36507); test: SelectScreen kinase assay; assay type: biochemical; conditions: 100 µM ATP, read-out: % control
T8 construct: purchased Life Technologies (Invitrogen) SelectScreen, Z'-LYTE / Adapta
T8 sequence (P36507 whole entry): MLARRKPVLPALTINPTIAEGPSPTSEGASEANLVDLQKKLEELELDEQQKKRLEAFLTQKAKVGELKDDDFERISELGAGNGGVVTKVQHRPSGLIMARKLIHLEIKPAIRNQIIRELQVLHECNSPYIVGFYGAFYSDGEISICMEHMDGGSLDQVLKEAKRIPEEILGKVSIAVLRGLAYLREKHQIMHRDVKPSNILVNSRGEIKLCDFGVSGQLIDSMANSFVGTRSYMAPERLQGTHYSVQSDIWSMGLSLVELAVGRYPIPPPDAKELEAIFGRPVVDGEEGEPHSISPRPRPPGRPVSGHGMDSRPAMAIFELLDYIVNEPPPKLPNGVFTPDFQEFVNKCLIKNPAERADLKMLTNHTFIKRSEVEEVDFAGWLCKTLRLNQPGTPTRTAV

Syk = Syk (Homo sapiens, UniProt P43405); test: Syk kinase mode of inhibition studies (Caliper LC3000); assay type: biochemical
Protocol: as §1

[1] = system: rat collagen-induced arthritis model; test: rat collagen-induced arthritis (CIA) model, paw swelling; assay type: in vivo; conditions: for inhibition of paw swelling: 8 days
Protocol: Female Lewis rats (150 – 170g; Charles River Laboratories) were house standard shoebox cages, fed Harlan-Tekald diet and water ad libitum and maintained on a 12h light/dark cycle. For induction of arthritis rats were anesthetized with isofluorane and their entire dorsal area shaved. Rats were injected (intradermal) with 100 μl of equal volumes of collagen (Chrondrex, Redmond, WA) and IFA (Sigma Chemicals, St. Louis, MO) emulsion in 10 sites across the dorsal region. At disease onset 11 days following immunization animals were randomized into groups based on their ankle measurements and test article administration was initiated. Rats were dosed orally with vehicle (20% Captisol®), Indomethacin (Sigma Chemicals, St. Louis, MO, 2mg/kg) or CC-509 (15, 25mg/kg QD or 15mg/kg BID) in a dose volume of 5ml/kg. […] On the last day of the study animals were split into 2 cohorts and bleed twice via tail bleed under isofluorane anesthesia and a third terminal bleed following CO2 asphyxiation to obtain a time course of plasma compound exposure at 30minutes, 1, 2, 4, 8 and 24h after the last dose of CC-509.
For the TEL-Syk assay, the intensity values for the 700 and 800 channel were exported as text files in ActivityBase (IDBS, Guildford, UK) to derive the ratios that reflect kinase activity. For LAD2 experiments, enzyme activity values were exported as text files into ActivityBase to calculate “percent release” according to the formula: 100* supernatant OD405/ (supernatant OD405 + (pellet OD405*pellet dilution factor)). For the basophil and B-cells assays, flow cytometry data was exported from the FACS Array and processed using FloJo software package (TreeStar, Inc., Ashland, Oregon). For the JAK2 HEL and Ramos NFAT β-lactamase assays, the fluorescence values obtained at 460 nm and 530 nm were exported into ActivityBase to calculate response ratios. For the neutrophil, macrophage, KDR, and JAK1/3 assays, raw values were exported into ActivityBase to calculate percent inhibition. All IC50 calculations were generated using XLfit (IDBS, Guildford, UK) algorithm 205 within Excel. For PCA, the OD from the saline injected site was subtracted from the OD from the anti-DNP IgE injected site. Evans blue dye extravasation was expressed as mean ± SEM and % inhibition for the test article groups was normalized to the cromolyn positive control. For the CIA model paw measurements (left and right ankle diameter) were taken for each individual animal and averaged. The mean data from each group was plotted and either the AUC(day 11–18) or % inhibition on day 18 was calculated. Data is expressed as mean ± SEM of each group with n = 6–12. Statistical analysis was performed with Prism Graphpad using one-way ANOVA followed by Dunnett’s comparison using the vehicle group as the control or for measurements over time a 2 way ANOVA followed by a Dunnett’s multiple comparison test. Statistical significance was deemed as * = p<0.05, **p<0.01, ***p<0.001 and p<0.0001.

T1 sequence (O43293 whole entry): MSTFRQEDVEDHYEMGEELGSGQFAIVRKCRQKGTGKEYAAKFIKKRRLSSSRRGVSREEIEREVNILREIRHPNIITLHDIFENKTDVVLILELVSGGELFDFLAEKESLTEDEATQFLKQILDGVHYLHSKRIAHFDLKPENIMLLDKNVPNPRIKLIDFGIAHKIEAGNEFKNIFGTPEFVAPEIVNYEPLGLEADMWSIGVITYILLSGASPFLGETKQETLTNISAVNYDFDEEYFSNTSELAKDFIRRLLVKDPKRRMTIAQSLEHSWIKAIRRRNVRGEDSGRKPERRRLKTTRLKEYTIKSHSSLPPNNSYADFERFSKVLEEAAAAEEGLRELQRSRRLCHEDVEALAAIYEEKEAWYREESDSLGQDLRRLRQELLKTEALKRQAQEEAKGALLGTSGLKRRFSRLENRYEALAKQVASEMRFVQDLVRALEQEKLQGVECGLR

`c1cc(CC2CCOCC2)n2nc(Nc3ccc4c(NC5CCOCC5)n[nH]c4c3)nc2c1` [CC-509, [3-(2H-3,4,5,6-tetrahydropyran-4-ylamino)(1H-indazol-6-yl)][5-(2H-3,4,5,6-tetrahydropyran-4-ylmethyl)(2H-1,2,4-triazolo[1,5-a]pyridin-2-yl)]amine] was tested, and the remaining activity at 3 µM (ZIPK_h) was 96%, the inhibition at 10 µM (Adenosine A2a) was 96% and the inhibition at 10 µM (Adenosine A3) was 84%. For the same molecule, the inhibition at 10 µM (Adenosine A1) was 89%, the remaining activity at 3 µM (FGFR4_h) was 68% and the remaining activity at 3 µM (Rsk1_h) was 60%. The IC50 (RetA) was 750 ± 190 nM, the remaining activity at 3 µM (MEK2_h) was 73% and the Ki (Syk) was 18 nM. The “mode of inhibition with respect to the Syk ATP binding site” value (Syk; based on enzyme kinetics) was “mixed competitive inhibitor”, the “inhibition of paw swelling” value ([1]; 15 mg/kg b.i.d. oral, p<0.001) was 72% and the “inhibition of paw swelling” value ([1]; 15 mg/kg q.d. oral, not significant) was 32%. The “inhibition of paw swelling” value ([1]; 25 mg/kg q.d. oral, p<0.0001) was 74% and the ED50 ([1]; rat CIA model) was about 10 mg/kg.
